pIC50: −log10 of the molar value. Several values for one entry are separate records, joined by “and”; a condition that tells them apart may be missing. Equal values may be shown once.
Legend:
Mouse EL = biological target: T1, Mouse EL (Mus musculus, UniProt Q9WVG5); assay: Endothelial Lipase Assay, cell surface lipase activity (mouse); type: cell-based; settings: PLA1 substrate 10 μM, fluorescence reaction rate, several values in a cell are repeat determinations
T1 construct: host or cells: not described for mouse EL
T1 sequence (Q9WVG5 21-500): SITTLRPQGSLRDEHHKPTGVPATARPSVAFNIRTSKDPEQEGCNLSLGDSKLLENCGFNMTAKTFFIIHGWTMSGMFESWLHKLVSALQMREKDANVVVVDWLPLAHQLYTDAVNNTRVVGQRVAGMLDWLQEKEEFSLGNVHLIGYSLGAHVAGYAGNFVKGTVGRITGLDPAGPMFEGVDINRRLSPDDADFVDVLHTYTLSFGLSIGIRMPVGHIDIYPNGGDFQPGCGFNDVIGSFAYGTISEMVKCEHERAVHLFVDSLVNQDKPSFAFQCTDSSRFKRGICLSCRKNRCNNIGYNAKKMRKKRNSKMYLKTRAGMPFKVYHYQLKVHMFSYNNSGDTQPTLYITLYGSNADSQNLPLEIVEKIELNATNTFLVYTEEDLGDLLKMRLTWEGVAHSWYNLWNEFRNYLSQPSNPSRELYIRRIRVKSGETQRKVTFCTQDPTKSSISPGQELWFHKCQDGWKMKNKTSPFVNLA
Protocol: (§1) Endothelial Lipase Assay (Human/Mouse)
(§2) To assay for cell surface lipase activity, cells expressing human endothelial lipase (EL) or LPL were plated in CellBIND® 384-well plates (Corning, Lowell, Mass.) in 25 μL serum free medium at a density of 2000 cells/well. After 18-24 hours incubation at 37° C., the medium was removed and replaced with 15 μL assay buffer [Hank's Buffered Saline Solution with 25 mM HEPES pH 7.2] and 15 μL PLA1 for a final concentration of 10 μM using a Multidrop reagent dispenser. Fluorescence signal was monitored for 30 min at 37° C. on a Safire II plate reader in kinetic mode (60 cycles, kinetic interval: 30 seconds) with an excitation wavelength of 490 nm and an emission wavelength of 515 nm. Linear regression of the fluorescence intensity collected from 480 to 1500 seconds was used to calculate the reaction rate (the slope) and the slopes were used to calculate IC50 values where appropriate. The amount of BODIPY-labeled product generated was calculated at the 30 min time point as determined from standard curve analysis of purified BODIPY FL C5. In all studies using the inhibitor Ebelactone B, consistent results were obtained when it was dissolved as a stock in DMSO, immediately before use.

[1] = biological target: T2, human endothelial lipase (EL) (Homo sapiens, UniProt Q9Y5X9); assay: Endothelial Lipase Assay, cell surface lipase activity (human); type: cell-based; settings: cells expressing human EL, PLA1 substrate 10 μM, fluorescence reaction rate; several values in a cell are repeat determinations
T2 construct: host or cells: cells expressing human endothelial lipase
T2 sequence (Q9Y5X9 21-500): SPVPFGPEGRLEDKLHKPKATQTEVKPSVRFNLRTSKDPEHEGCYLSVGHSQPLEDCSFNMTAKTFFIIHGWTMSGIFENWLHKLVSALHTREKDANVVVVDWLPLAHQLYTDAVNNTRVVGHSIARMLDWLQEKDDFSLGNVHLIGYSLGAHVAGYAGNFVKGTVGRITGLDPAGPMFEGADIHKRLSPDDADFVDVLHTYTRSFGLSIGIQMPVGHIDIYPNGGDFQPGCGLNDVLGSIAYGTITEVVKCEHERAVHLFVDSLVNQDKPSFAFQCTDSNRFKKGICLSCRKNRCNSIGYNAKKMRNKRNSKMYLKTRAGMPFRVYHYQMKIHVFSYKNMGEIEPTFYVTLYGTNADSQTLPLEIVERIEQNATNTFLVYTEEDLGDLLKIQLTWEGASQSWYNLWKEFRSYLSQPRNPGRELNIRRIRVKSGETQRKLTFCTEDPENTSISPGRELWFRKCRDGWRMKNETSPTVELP
Protocol: as §1, §2

| pIC50 (Mouse EL) | pIC50 [1] | Compound |
| --- | --- | --- |
| 7.43 | 7.03 | COC(=O)c1cccc(COc2ccc(-c3nnc(CNC(=O)C(=O)CCCCCCc4ccccc4)s3)cc2)c1 [Compound 137] |
| 6.67 | 6.46 | O=C(CCCCCCc1ccccc1)C(=O)NCc1nnc(-c2ccc(OCc3ccncn3)cc2)o1 [Compound 107] |
| 5.52 | 5.27 | O=C(CCCCCCc1ccccc1)C(=O)NCc1nnc(-c2ccc3c(=O)n4c(nc3c2)CCC4)o1 [Compound 19] |
| 6.55 | 6.51 | O=C(CCCCCCc1ccc(F)nc1)C(=O)NCc1nnc(-c2ccc(Oc3ccccc3)cc2)o1 [Compound 127] |
| 6.26 | 6.31 | O=C(CCCCCCc1ccccc1)C(=O)NCc1nnc(-c2ccc(F)c(F)c2)o1 [Compound 20] |
| 7.10 and 6.80 | 6.26 and 6.73 | O=C(CCCCCCc1ccccc1)C(=O)NCc1nnc(-c2ccc(OCc3cc(F)cc(F)c3)cc2)o1 [Compound 90] |
| 7.35 | 7.00 | COC(=O)c1ccc(COc2ccc(-c3nnc(CNC(=O)C(=O)CCCCCCc4ccccc4)s3)cc2)o1 [Compound 141] |
| 6.00 | 5.59 | CC(C)(C)OC(=O)c1cccc(COc2ccc(-c3nnc(CNC(=O)C(=O)CCCCCCc4ccccc4)o3)cc2)c1 [Compound 125] |
| 7.85 | 7.80 | COC(=O)c1cccc(COc2ccc(-c3nnc(CNC(=O)C(=O)CCCCCCc4ccc(F)nc4)s3)cc2)c1 [Compound 170] |
| 6.18 | 5.89 | O=C(CCCCCOc1cccc(Cl)c1)C(=O)NCc1nnc(-c2ccc(OCc3ccccc3)cc2)o1 [Compound 96] |
| 6.05 | 5.80 | NC(=O)c1cncc(CCCCCCC(=O)C(=O)NCc2nnc(-c3ccc(Oc4ccccc4)cc3)o2)c1 [Compound 142] |
| 5.14 | 4.93 | O=C(CCCCCCc1ccccc1)C(=O)NCc1nnc(-c2ccncc2)o1 [Compound 178] |
| 6.57 | 6.25 | O=C(CCCCCCc1ccc2nc(Cl)ccc2c1)C(=O)NCc1nnc(-c2ccccc2)o1 [Compound 50] |
| 7.54 | 7.49 | O=C(CCCCCCc1ccccc1)C(=O)NCc1nnc(-c2ccc(OCc3ccncc3)cc2)s1 [Compound 140, 2-oxo-8-phenyl-N-((5-(4-(pyridin-4-ylmethoxy)phenyl)-1,3,4-thiadiazol-2-yl)methyl)octanamide] |
| 6.67 | 6.22 | O=C(CCCCCCc1ccccc1)C(=O)NCc1nnc(-c2ccc(OCc3ccc(F)cc3)cc2)o1 [Compound 80] |
| 6.04 | 6.36 | O=C(CCCCCOc1ccc(F)cc1F)C(=O)NCc1nnc(-c2ccc(Oc3ccccc3)cc2)o1 [Compound 92] |
|  | 4.98 | O=C(CCCCCCc1ccccc1)C(=O)NCc1nnc(-c2ccccc2)[nH]1 [Compound 11] |
|  | 5.96 | COc1cccc(-c2nnc(CNC(=O)C(=O)CCCCCCc3ccccc3)o2)c1 [Compound 3] |

The remaining lines, values behind:

| Compound | pIC50 (Mouse EL) | pIC50 [1] |
| --- | --- | --- |
| O=C(CCCCCOc1cccc(Cl)c1)C(=O)NCc1nnc(-c2ccc(Oc3ccccc3)cc2)s1 [Compound 134] | 6.61 | 6.22 |
| N#Cc1ccc(C#CCCCCC(=O)C(=O)NCc2nnc(-c3ccccc3)o2)cc1 [Compound 45] | 5.62 | 5.46 |
| O=C(CCCCCOc1c(F)cccc1F)C(=O)NCc1nnc(-c2ccc(Oc3ccccc3)cc2)o1 [Compound 93] | 5.83 | 5.51 |
| COc1ccccc1-c1nnc(CNC(=O)C(=O)CCCCCCc2ccccc2)o1 [Compound 6] |  | 5.58 |
| Cc1ccc(-c2nnc(CNC(=O)C(=O)CCCCCCc3ccccc3)o2)cc1 [Compound 25] | 6.48 and 6.63 and 6.57 | 6.45 and 6.50 and 6.33 |
| O=C(CCCCCCc1ccccc1)C(=O)NCc1nnc(-c2ccc(-c3ccccc3)cc2)o1 [Compound 17] | 5.73 | 5.47 |
| COc1cccc(CCCCCCC(=O)C(=O)NCc2nnc(-c3ccc(C)cc3)o2)c1 [Compound 32] | 6.78 | 6.67 |
| O=C(CCCCC=Cc1ccccc1)C(=O)NCc1nnc(-c2ccc(Oc3ccccc3)cc2)o1 [Compound 143] | 4.96 | 5.11 |
| Cc1ccc(-c2nnc(CNC(=O)C(=O)CCCCCc3ccc(-c4ccccc4)cc3)o2)cc1 [Compound 37] | 5.83 | 5.60 |
| O=C(CCCCCCc1ccccc1)C(=O)NCc1nnc(-c2ccc(OCc3cccc(C(=O)O)c3)cc2)o1 [Compound 126] | 6.62 | 6.40 |
| O=C(CCCCCc1ccc(-c2ccccc2)cc1)C(=O)NCc1nnc(-c2ccc3ccccc3c2)o1 [Compound 36] | 5.18 | 4.99 |
| O=C(CCCCCCc1ccccc1)C(=O)NCc1nnc(-c2ccccc2)o1 [Compound 1, 2-oxo-8-phenyl-N-((5-phenyl-1,3,4-oxadiazol-2-yl)methyl)octanamide] | 5.98 and 6.06 and 6.15 | 6.02 and 6.08 and 6.16 |
| O=C(CCCCCCc1ccccc1)C(=O)NCc1nnc(-c2ccc(OCc3ccncc3F)cc2)s1 [Compound 161] | 7.43 | 7.03 |
| O=C(CCCCCCc1ccccc1)C(=O)NCc1nnc(-c2ccc(OCc3cccc(Br)n3)cc2)s1 [Compound 162] | 6.69 | 5.87 |
| O=C(CCCCCCc1ccccc1)C(=O)NCc1nnc(-c2ccc(OCc3cccnc3)cc2)s1 [Compound 138] | 7.24 and 7.10 | 7.26 and 6.97 |
| O=C(CCCCCOc1cccc(F)c1)C(=O)NCc1nnc(-c2ccccc2)o1 [Compound 53] | 5.23 | 5.32 |

| Compound | pIC50 (Mouse EL) | pIC50 [1] |
| --- | --- | --- |
| O=C(CCCCCOc1cccc(F)c1)C(=O)NCc1nnc(-c2ccc3ccccc3c2)o1 [Compound 54] | 6.10 | 6.04 |
| O=C(CCCCCCc1ccccc1)C(=O)NCc1nnc(-c2ccc(OCc3ccccc3F)cc2)s1 [Compound 145] | 6.77 | 6.51 |
| O=C(CCCCCCc1cccc(OC(F)(F)F)c1)C(=O)NCc1nnc(-c2ccccc2)o1 [Compound 49] | 6.51 | 6.25 |
| O=C(CCCCCOc1cccc(F)c1F)C(=O)NCc1nnc(-c2ccc(Oc3ccccc3)cc2)o1 [Compound 102] | 6.09 | 5.71 |
| O=C(CCCCCOc1cccc(F)c1)C(=O)NCc1nnc(-c2ccc(OCc3ccccc3)cc2)o1 [Compound 69, N-((5-(4-(benzyloxy)phenyl)-1,3,4-oxadiazol-2-yl)methyl)-7-(3-fluorophenoxy)-2-oxoheptanamide] | 6.08 | 6.57 |
| O=C(CCCCCCc1ccccc1)C(=O)NCc1nnc(-c2ccc(NCc3cccnc3)cc2)o1 [Compound 124] | 5.53 | 5.44 |
| O=C(CCCCCCc1ccccc1)C(=O)NCc1nnc(-c2ccc3ccccc3c2)o1 [Compound 27] | 6.65 and 6.74 | 6.53 and 6.89 |
| O=C(CCCCCCc1cccnc1F)C(=O)NCc1nnc(-c2ccc(Oc3ccccc3)cc2)o1 [Compound 119] | 6.04 | 6.01 |
| O=C(CCCCCCc1ccccc1)C(=O)NCc1nnc(-c2ccccc2F)o1 [Compound 12] | 5.76 | 5.68 |
| O=C(CCCCCCc1ccccc1)C(=O)NCc1nnc(-c2ccc(OCn3nnc4ccccc43)cc2)o1 [Compound 104] | 6.74 | 6.64 |
| O=C(CCCCCCc1ccccc1)C(=O)NCc1nnc(-c2ccccc2Cl)o1 [Compound 5] |  | 6.18 |
| O=C(CCCCCNc1cccc(F)n1)C(=O)NCc1nnc(-c2ccccc2)o1 [Compound 171] |  | 4.48 |
| O=C(CCCCCCc1ccccc1)C(=O)NCc1nnc(-c2ccc3c(c2)OCO3)o1 [Compound 7] |  | 6.34 |
| O=C(CCCCCCc1ccccc1)C(=O)NCc1nnc(-c2cccnc2)o1 [Compound 177] |  | 5.28 |
| COc1ccc(-c2nnc(CNC(=O)C(=O)CCCCCCc3ccccc3)o2)cc1 [Compound 4] |  | 6.19 |

Source: patent US8476302B2, “α-ketoamide derivatives useful endothelial lipase inhibitors” (Janssen Pharmaceutica N.V., priority 2010, dated 2013)
